Results published in patent US11986532B2 (Arvinas Operations, Inc., priority 2021, dated 2024).
Like-named read-outs stand apart in the source and are kept apart here.

Biological target: T1, BCL6 (Homo sapiens, UniProt P41182)
T1 construct: endogenous in cells; host or cells: T47D breast cancer epithelial cells
Assay: Immunofluorescence protocol for high content imaging of BCL6 (degradation) in T47D cells, 3 days compound treatment
Type: cell-based
Conditions: for DC50: read-out: Mean DC50 (nM)* category; for Dmax: read-out: Mean Dmax (%)** category
Summary of the method: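 Read-out: high-content imaging of anti-BCL6 immunofluorescence (Alexa-488 secondary) with CellMask and Hoechst counterstains, 10×, 4 fields/well. Cells had 3 days of compound exposure at 37° C, 5% CO2, 11-point 3-fold series from a final top of 0.1 or 1 μM.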

[1] = T47D cells, 3 days compound treatment

Row | Compound | DC50 [1] | Dmax [1] | Dmax (T47D) | DC50
1 | CNC(=O)COc1cc2cc(Nc3nc(N4CCN(C(C)(C)C5CCN(c6cc7c(cc6F)C(=O)N(C6CCC(=O)NC6=O)C7)CC5)CC4)ncc3Cl)ccc2n(C(C)C)c1=O (centres unmarked) [Compound 68, 2-{[6-({5-chloro-2-[4-(2-{1-[2-(2,6-dioxopiperidin-3-yl)-6-fluoro-1-oxo-2,3-dihydro-1H-isoindol-5-yl]piperidin-4-yl}propan-2-yl)piperazin-1-yl]pyrimidin-4-yl}amino)-2-oxo-1-(propan-2-yl)-1,2-dihydroquinolin-3-yl]oxy}-N-methylacetamide] | < 10 nM | 50 to 70% |  | 
2 | CNC(=O)COc1cc2cc(Nc3nc(N4CCC(OC5CN([C@H]6CC[C@H](c7ccc8c(c7F)CN(C7CCC(=O)NC7=O)C8=O)CC6)C5)CC4)ncc3Cl)ccc2n(C(C)C)c1=O (some centres unmarked) [Compound 183, 2-{[6-({5-chloro-2-[4-({1-[(1r,4r)-4-[2-(2,6-dioxopiperidin-3-yl)-4-fluoro-1-oxo-2,3-dihydro-1H-isoindol-5-yl]cyclohexyl]azetidin-3-yl}oxy)piperidin-1-yl]pyrimidin-4-yl}amino)-2-oxo-1-(propan-2-yl)-1,2-dihydroquinolin-3-yl]oxy}-N-methylacetamide] | < 10 nM | ≥ 70% |  | 
3 | CNC(=O)COc1cc2cc(Nc3nc(N4CCC(O[C@H]5C[C@H](N6CCN(c7cc(OC)c8c(c7)C(=O)N(C7CCC(=O)NC7=O)C8=O)CC6)C5)CC4)ncc3Cl)ccc2n(C(C)C)c1=O (some centres unmarked) [Compound 379, 2-({6-[(5-chloro-2-{4-[(1r,3r)-3-{4-[2-(2,6-dioxopiperidin-3-yl)-7-methoxy-1,3-dioxo-2,3-dihydro-1H-isoindol-5-yl]piperazin-1-yl}cyclobutoxy]piperidin-1-yl}pyrimidin-4-yl)amino]-2-oxo-1-(propan-2-yl)-1,2-dihydroquinolin-3-yl}oxy)-N-methylacetamide] |  |  | 50 to 70% | < 10 nM
4 | [2H]C([2H])([2H])Oc1c(N2CC3(CCC(OC4CCN(c5ncc(Cl)c(Nc6ccc7c(c6)cc(OCC(=O)NC)c(=O)n7C(C)C)n5)CC4)CC3)C2)ccc2c1CN(C1CCC(=O)NC1=O)C2=O (centres unmarked) [Compound 225, 2-((6-((5-chloro-2-(4-((2-(2-(2,6-dioxopiperidin-3-yl)-4-(methoxy-d3)-1-oxoisoindolin-5-yl)-2-azaspiro[3.5]nonan-7-yl)oxy)piperidin-1-yl)pyrimidin-4-yl)amino)-1-isopropyl-2-oxo-1,2-dihydroquinolin-3-yl)oxy)-N-methylacetamide] |  |  | ≥ 70% | < 10 nM
5 | CNC(=O)COc1cc2cc(Nc3nc(N4CCC(O[C@H]5CC[C@H](N(C)C6CN(c7ccc8c(c7)C(=O)N(C7CCC(=O)NC7=O)C8=O)C6)CC5)CC4)ncc3Cl)ccc2n(C(C)C)c1=O (some centres unmarked) [Compound 107, 2-[(6-{[5-chloro-2-(4-{[(1r,4r)-4-({1-[2-(2,6-dioxopiperidin-3-yl)-1,3-dioxo-2,3-dihydro-1H-isoindol-5-yl]azetidin-3-yl}(methyl)amino)cyclohexyl]oxy}piperidin-1-yl)pyrimidin-4-yl]amino}-2-oxo-1-(propan-2-yl)-1,2-dihydroquinolin-3-yl)oxy]-N-methylacetamide] | < 10 nM | 50 to 70% |  | 
6 | CNC(=O)COc1cc2cc(Nc3nc(N4CCC(O[C@H]5C[C@H](N6CC7(CCN7c7ccc8c(c7)C(=O)N(C7CCC(=O)NC7=O)C8)C6)C5)CC4)ncc3Cl)ccc2n(C(C)C)c1=O (some centres unmarked) [Compound 330, 2-({6-[(5-chloro-2-{4-[(1r,3r)-3-{1-[2-(2,6-dioxopiperidin-3-yl)-3-oxo-2,3-dihydro-1H-isoindol-5-yl]-1,6-diazaspiro [3.3]heptan-6-yl}cyclobutoxy]piperidin-1-yl}pyrimidin-4-yl)amino]-2-oxo-1-(propan-2-yl)-1,2-dihydroquinolin-3-yl}oxy)-N-methylacetamide] |  |  | < 50% | 10 to 50 nM
7 | CNC(=O)COc1cc2cc(Nc3nc(N4CCC(O[C@H]5C[C@H](N6CC7CCC(C6)N7c6ccc7c(c6)CN(C6CCC(=O)NC6=O)C7=O)C5)CC4)ncc3Cl)ccc2n(C(C)C)c1=O (some centres unmarked) [Compound 371, 2-({6-[(5-chloro-2-{4-[(1r,3r)-3-{8-[2-(2,6-dioxopiperidin-3-yl)-1-oxo-2,3-dihydro-1H-isoindol-5-yl]-3,8-diazabicyclo[3.2.1]octan-3-yl}cyclobutoxy]piperidin-1-yl}pyrimidin-4-yl)amino]-2-oxo-1-(propan-2-yl)-1,2-dihydroquinolin-3-yl}oxy)-N-methylacetamide] |  |  | < 50% | < 10 nM
8 | [2H]C([2H])([2H])Oc1c(N2CC3(CCN(CC4CCN(c5ncc(Cl)c(Nc6ccc7c(c6)cc(OCC(=O)NC)c(=O)n7C(C)C)n5)CC4)CC3)C2(C)C)ccc2c1CN(C1CCC(=O)NC1=O)C2=O (centres unmarked) [Compound 227, 2-{[6-({5-chloro-2-[4-({2-[2-(2,6-dioxopiperidin-3-yl)-4-(^2H3)methoxy-1-oxo-2,3-dihydro-1H-isoindol-5-yl]-1,1-dimethyl-2,7-diazaspiro[3.5]nonan-7-yl}methyl)piperidin-1-yl]pyrimidin-4-yl}amino)-2-oxo-1-(propan-2-yl)-1,2-dihydroquinolin-3-yl]oxy}-N-methylacetamide] |  |  | 50 to 70% | < 10 nM
9 | CNC(=O)COc1cc2cc(Nc3nc(N4CCCC4)ncc3Cl)ccc2n(CCOc2ccc3c(c2)C(=O)N(C2CCC(=O)NC2=O)C3=O)c1=O (centres unmarked) [Compound 32, 2-[(6-{[5-chloro-2-(pyrrolidin-1-yl)pyrimidin-4-yl]amino}-1-(2-{[2-(2,6-dioxopiperidin-3-yl)-1,3-dioxo-2,3-dihydro-1H-isoindol-5-yl]oxy}ethyl)-2-oxo-1,2-dihydroquinolin-3-yl)oxy]-N-methylacetamide] | 10 to 50 nM | 50 to 70% |  | 
10 | CNC(=O)COc1cc2cc(Nc3nc(N4CCC(O[C@H]5C[C@H](N6CCC(c7cc(C)c8c(c7F)CN(C7CCC(=O)NC7=O)C8=O)CC6)C5)CC4)ncc3Cl)ccc2n(C(C)C)c1=O (some centres unmarked) [Compound 208, 2-({6-[(5-chloro-2-{4-[(1r,3r)-3-{4-[2-(2,6-dioxopiperidin-3-yl)-4-fluoro-7-methyl-1-oxo-3H-isoindol-5-yl]piperidin-1-yl}cyclobutoxy]piperidin-1-yl}pyrimidin-4-yl)amino]-1-isopropyl-2-oxoquinolin-3-yl}oxy)-N-methylacetamide] | < 10 nM | ≥ 70% |  | 
11 | CC(C)n1c(=O)c(OCC(=O)N(C)C)cc2cc(Nc3nc(N4CCC(CN5CCC6(CC5)CN(c5ccc7c(c5)C(=O)N(C5CCC(=O)NC5=O)C7=O)C6)CC4)ncc3Cl)ccc21 (centres unmarked) [Compound 55, 2-{[6-({5-chloro-2-[4-({2-[2-(2,6-dioxopiperidin-3-yl)-1,3-dioxo-2,3-dihydro-1H-isoindol-5-yl]-2,7-diazaspiro[3.5]nonan-7-yl}methyl)piperidin-1-yl]pyrimidin-4-yl}amino)-2-oxo-1-(propan-2-yl)-1,2-dihydroquinolin-3-yl]oxy}-N,N-dimethylacetamide] | ≥ 100 nM | ≥ 70% |  | 
12 | CNC(=O)COc1cc2cc(Nc3nc(N4CCN(CC5CCC6(CC5)CN(c5ccc(F)c7c5CN(C5CCC(=O)NC5=O)C7=O)C6)CC4)ncc3Cl)ccc2n(C(C)C)c1=O (centres unmarked) [Compound 316, 2-{[6-({5-chloro-2-[4-({2-[2-(2,6-dioxopiperidin-3-yl)-7-fluoro-1-oxo-2,3-dihydro-1H-isoindol-4-yl]-2-azaspiro[3.5]nonan-7-yl}methyl)piperazin-1-yl]pyrimidin-4-yl}amino)-2-oxo-1-(propan-2-yl)-1,2-dihydroquinolin-3-yl]oxy}-N-methylacetamide] |  |  | 50 to 70% | < 10 nM
13 | CNC(=O)COc1cc2cc(Nc3nc(N4CCC(O[C@H]5C[C@H](N6CC7(CCN(c8ccc9c(c8)C(=O)N(C8CCC(=O)NC8=O)C9)CC7)C6)C5)CC4)ncc3Cl)ccc2n(C(C)C)c1=O (some centres unmarked) [Compound 377, 2-({6-[(5-chloro-2-{4-[(1r,3r)-3-{7-[2-(2,6-dioxopiperidin-3-yl)-3-oxo-2,3-dihydro-1H-isoindol-5-yl]-2,7-diazaspiro[3.5]nonan-2-yl}cyclobutoxy]piperidin-1-yl}pyrimidin-4-yl)amino]-2-oxo-1-(propan-2-yl)-1,2-dihydroquinolin-3-yl}oxy)-N-methylacetamide] |  |  | ≥ 70% | 50 to 100 nM
14 | CNC(=O)COc1cc2cc(Nc3nc(N4CC5C(CN6CCN(c7ccc8c(c7)C(=O)N(C7CCC(=O)NC7=O)C8=O)CC6)C5C4)ncc3Cl)ccc2n(C(C)C)c1=O (centres unmarked) [Compound 157, 2-{[6-({5-chloro-2-[6-({4-[2-(2,6-dioxopiperidin-3-yl)-1,3-dioxo-2,3-dihydro-1H-isoindol-5-yl]piperazin-1-yl}methyl)-3-azabicyclo [3.1.0]hexan-3-yl]pyrimidin-4-yl}amino)-2-oxo-1-(propan-2-yl)-1,2-dihydroquinolin-3-yl]oxy}-N-methylacetamide] | 10 to 50 nM | < 50% |  | 
15 | CNC(=O)COc1cc2cc(Nc3nc(N4CCC(O[C@H]5C[C@H](N6CCC(c7cc8c(cn7)C(=O)N(C7CCC(=O)NC7=O)C8)CC6)C5)CC4)ncc3Cl)ccc2n(C(C)C)c1=O (some centres unmarked) [Compound 219, 2-({6-[(5-chloro-2-{4-[(1r,3r)-3-{4-[2-(2,6-dioxopiperidin-3-yl)-3-oxo-1H,2H,3H-pyrrolo[3,4-c]pyridin-6-yl]piperidin-1-yl}cyclobutoxy]piperidin-1-yl}pyrimidin-4-yl)amino]-2-oxo-1-(propan-2-yl)-1,2-dihydroquinolin-3-yl}oxy)-N-methylacetamide] |  |  | 50 to 70% | < 10 nM
16 | CNC(=O)COc1cc2cc(Nc3nc(N4CCC(C(C)(C)N5CCC6(CCN(c7ccc8c(c7)CN(C7CCC(=O)NC7=O)C8=O)C6)C5)CC4)ncc3Cl)ccc2n(C(C)C)c1=O (centres unmarked) [Compound 53] | < 10 nM | 50 to 70% |  | 
